According to patent US6821751B2, “Hypoxia responsive transcription enhancer element from yeast” (The Brigham and Women's Hospital, Inc., priority 2001, dated 2004):
pIC50: −log10 of the molar value.

Assays:
[1] = system: OLE1 promoter-lacZ fusion; assay: β-galactosidase assay of OLE1 promoter-lacZ fusion reporter (p62::934 and pAM4); assay type: cell-based, S. cerevisiae
Method: (§1) The construction of several of the OLE1 promoter-lacZ fusion deletion series has been described previously (Choi, et al., J. Biol. Chem. 271:3581-3589 (1996)). Construction of pAM6, pAM7, pAM10 and pAM16 vectors containing the OLE1 low oxygen response element (LORE) sequences −347 to −328 relative to the ATG translational start codon with the A of the codon designated as +1) was performed by inserting the synthetic paired oligonucleotides (10-5′ and 10-3′) into the XhoI restriction site of pTBA30, the CYC1 basal promoter-lacZ fusion vector. pAM16 contains one LORE copy in the −347 to −328 forward or (+) orientation 5′ to the basal CYC1 promoter-lacZ fusion. pAM7 has one LORE copy in the −328 to −347 reverse or (+) orientation. pAM6 contains a tandem repeat of the LORE in the (+) orientation. pAM10 was generated by inserting the synthetic paired oligonucleotides (yd-19 and yd-20) into the XhoI restriction site of pTBA30. The LORE in this plasmid has three mutations. Plasmid pAM4 is the p62::934 derivative with three nucleotide substitutions in the LORE region (-C342T, -T341A and -A339G) prepared utilizing three step PCR with oligonucleotides containing site-directed mutations. Two PCR reactions with appropriate pairs of mutant primers (PCR1 : yd-8 and yd-20 and PCR2: yd-19 and lacZ-3′) and Taq DNA polymerase were carried out as recommended by Roche Molecular Biochemicals (IN) in 100 μl reactions, using 1 ng of p62::934 as a template in a PTC-100 thermal cycler for 30 cycles (1 min at 94° C., 1 min at 55° C., 1 min at 72° C.), followed by 7 min at 72° C. The PCR products were purified from a 1.0% agarose gel using a Qiaex DNA extraction kit (Qiagen, Calif.). Then, PCR products 1 and 2 were annealed and amplified as above with primer yd-8 and lacZ-3′. The resulting PCR products were purified as above and digested with restriction enzymes HindIII and SalI. Finally this PCR product was cloned into HindIII and SalI pretreated p62::934 plasmid to generate pAM4. All the constructs were verified by DNA sequencing. The promoter deletion constructs were transformed into wild-type strain RZ53-6 for subsequent β-galactosidase assays.
Yeast cells containing lacZ fusion plasmids were grown at 30° C. on uracil dropout medium containing dextrose (Treco, et al., In Current Protocols in Molecular Biology, Ausubel, et al., eds., pp. 13.2.1-13.2.12, John Wiley & Sons, New York (1997)). For unsaturated fatty acid repression analysis, yeast were grown in medium supplemented with 1% tergitol as described previously (Choi, et al., J. Biol. Chem. 271:3581-3589 (1996)). Cells were grown in the presence of UFAs for 6 hours prior to the β-galactosidase assays. Plasmid amplifications and bacterial transformations were performed using Escherichia coli strain DH5 (Invitrogene Corp.). […]

OLE1 mRNA = assay: Northern blot analysis of OLE1 mRNA; assay type: cell-based, S. cerevisiae; details: for levels of OLE1 mRNA after transition metal in normoxia: increasing concentrations
Method: (§2) Yeast cells containing lacZ fusion plasmids were grown at 30° C. on uracil dropout medium containing dextrose (Treco, et al., In Current Protocols in Molecular Biology, Ausubel, et al., eds., pp. 13.2.1-13.2.12, John Wiley & Sons, New York (1997)). For unsaturated fatty acid repression analysis, yeast were grown in medium supplemented with 1% tergitol as described previously (Choi, et al., J. Biol. Chem. 271:3581-3589 (1996)). Cells were grown in the presence of UFAs for 6 hours prior to the β-galactosidase assays. Plasmid amplifications and bacterial transformations were performed using Escherichia coli strain DH5 (Invitrogene Corp.). Yeast transformations were performed by the method of Elble (BioTechniques 13:18-20 (1992)). Preparative cultures were grown aerobically in a shaker at 200 rpm (Innova 4000 incubator shaker, New Brunswick Scientific. NJ) at 30° C. to mid-logarithmic phase. For experiments assessing yeast under hypoxic conditions, mid-logarithmic phase preparative cultures were used to inoculate special air-tight flasks with inlet and outlet ports to allow for equilibration with the appropriate gas mixtures. Cultures were exposed to a continuous flow of hydrated medical grade nitrogen (BOC Gases, MA), unless otherwise specified, for 6 hours after inoculating the medium via the inlet port. Of note, medical grade nitrogen is contaminated with trace amounts of O2 (less than 1%). The percentage of saturated O2 in each flask was confirmed by using an oxygen monitor (G. C. Industries, Inc.) attached to the outlet port of each culture. […] Growth was monitored by measuring the yeast OD600 at the completion of each experiment.
(§3) Total yeast RNA was isolated as described previously (Collart, et al., In Current Protocols in Molecular Biology, Ausubel, et al., pp. 13.12.1-13.12.5, John Wiley & Sons, New York (1997)). Equal amounts (15 μg) of total RNA were analyzed by Northern blots according to standard procedures for separation of RNA using 1% formaldehyde gels (Collart, et al., In Current Protocols in Molecular Biology, Ausubel, et al., eds, pp. 13.12.1-13.12.5, John Wiley & Sons, New York (1997)). […] Northern blots were quantified using a phosphorimager (Molecular Dynamics) and autoradiographs were also prepared on X-OMAT AR film (Kodak, NY).
For the detection of OLE1 mRNA, a radiolabeled DNA probe was made using a 0.5 kb EcoRI fragment from the OLE1 protein coding sequence. […] The purified DNA fragments were labeled to high specific activity with [^32P]dCTP by the random primer extension method using Ready to Go DNA labeling beads (Amersham Pharmaceutical Biotech) reaction kit. […] Specific activity of labeled probes was determined by liquid scintillation counting.

S. cerevisiae = assay type: cell-based; details: any of the concentrations tested
Method: as §2, with “mixtures.” for “mixtures. Cultures were exposed to a continuous flow of hydrated medical grade nitrogen (BOC Gases, MA), unless otherwise specified, for 6 hours after inoculating the medium via the inlet port. Of note, medical grade nitrogen is contaminated with trace amounts of O2 (less than 1%). The percentage of saturated O2 in each flask was confirmed by using an oxygen monitor (G. C. Industries, Inc.) attached to the outlet port of each culture.”

ANB1 = assay: Expression of anaerobic yeast gene ANB1; assay type: cell-based, S. cerevisiae
SUT1 = assay: Northern blot analysis of SUT1 expression; assay type: cell-based, S. cerevisiae
Method: (§4) Yeast cells containing lacZ fusion plasmids were grown at 30° C. on uracil dropout medium containing dextrose (Treco, et al., In Current Protocols in Molecular Biology, Ausubel, et al., eds., pp. 13.2.1-13.2.12, John Wiley & Sons, New York (1997)). For unsaturated fatty acid repression analysis, yeast were grown in medium supplemented with 1% tergitol as described previously (Choi, et al., J. Biol. Chem. 271:3581-3589 (1996)). Cells were grown in the presence of UFAs for 6 hours prior to the β-galactosidase assays. Plasmid amplifications and bacterial transformations were performed using Escherichia coli strain DH5 (Invitrogene Corp.). […] Growth was monitored by measuring the yeast OD600 at the completion of each experiment.
as §3, with “NY). […]” for “NY).”

ATF1 = assay: Northern blot analysis of ATF1 mRNA; assay type: cell-based, S. cerevisiae
Method: as §4
as §3, with “NY). […]” for “NY).”

[2] = system: LORE-basal CYC1 promoter-lacZ; assay: microbe, parasite or virus in culture; assay type: cell-based, S. cerevisiae
Method: as §1, with “The promoter deletion constructs were transformed into wild-type strain RZ53-6 for subsequent β-galactosidase assays.” left out

TRX2 mRNA = assay: Northern blot analysis of TRX2 mRNA; assay type: cell-based, S. cerevisiae
Method: as §4
as §3, with “NY). […]” for “NY).”

LORE binding factor(s) = assay: Electrophoretic mobility shift assay (EMSA) with crude yeast extracts; set-up: species or system S. cerevisiae
Method: Haploid yeast (S. cerevisiae, strain RZ53-6 ) were cultured in 1-liter flasks containing 200 ml of YPD (1% yeast extract, 2% peptone, 2% dextrose) either under normoxic or hypoxic conditions, harvested at midlog phase (OD600=0.8), and lysed by vortexing with glass beads according to published protocols (Pfeifer, et al., Cell 49:9-18 (1987)). Following addition of ammonium sulfate to 40% and incubation on a rocker table at 4° C. for 30 minutes, the precipitate was collected by centrifugation at 14,000 rpm in a microfuge at 4° C. for 10 minutes. The pellet was resuspended in storage buffer (20 mM HEPES, pH8.0; 5 mM EDTA; 20% (v/v) glycerol; 1 mM PMSF; 7 mM β-mercaptoethanol) and stored frozen at −80° C. The soluble protein concentration was determined using a Bradford dye binding assay (BioRad, CA).
EMSAs were performed essentially as described by Carey (Carey, Methods Enzymol. 208:103-117 (1991)) utilizing synthetic paired oligonucleotides (e.g., 10-5′ and 10-3′) as a probe or a probe containing the LORE sequence made by PCR using p62::934 as the template with ^32P-labeled oligonucleotides 1-5′ and yd-10 (−397 to −234) as the primers. […] The concentration of each probe was determined on an ethidium bromide stained agarose-mini gel (Maniatis, et al., Molecular Cloning: A Laboratory Manual, Cold Spring Harbor Laboratory Press, Cold Spring Harbor, N.Y. (1982)). […]

## c1cnc2c(c1)ccc1cccnc12 [1,10 Ph, 1,10-phenanthroline]
[1]; 6 hours of incubation, 2-8 μg/ml
  gene expression after incubation with chelator: substantially increase
[1]; exposure for six hours
  expression of OLE1 by OLE1 promoter-lacZ reporter: dose dependent increase
OLE1 mRNA; exposure for six hours
  expression of OLE1 by Northern blot: dose dependent increase
S. cerevisiae
  cell growth: unaffected

## [Cl][Co][Cl] [CoCl2, cobalt chloride]
ANB1
  expression of ANB1 with cobalt: not upregulated
[1]; reporter p62::934, strain RZ53-6 Δrox1
  induction of reporter under cobalt-treated conditions in ROX1 deletion strain: 5.1 fold increase
[1]; reporter pAM4 (mutated LORE)
  CoCl2 dependent induction by reporter assay: not affected
SUT1
  induction of SUT1 expression by cobalt: no significant induction
ATF1
  induction of ATF1 by cobalt treatment: induced
OLE1 mRNA
  levels of OLE1 mRNA after transition metal in normoxia: increased levels
[2]; plasmid pAM6
  increase of reporter gene expression under cobalt-treated conditions: ~10 fold
TRX2 mRNA
  cobalt induction of TRX2 mRNA: ~2.5 fold

## [Cl][Ni][Cl] [NiCl2, nickel chloride]
OLE1 mRNA
  levels of OLE1 mRNA after transition metal in normoxia: increased levels

## CCCCC/C=C\C/C=C\CCCCCCCC(=O)O [linoleic acid]
OLE1 mRNA; Northern blot
  OLE1 mRNA level after unsaturated fatty acid: dramatically repressed
LORE binding factor(s); crude extracts from L.A.-treated yeast
  hypoxia-induced LORE complex formation (B1): significantly suppressed
[2]; Saccharomyces cerevisiae, reporter pAM6 (two copies of LORE in tandem), UFA for 6 hours, read-out: IC50 of inhibition of lacZ reporter plasmid pAM6 expression
  pIC50: ~4.70
[2]; normoxia-, hypoxia- and cobalt-induced expression, pAM6
  repression / dose-response inhibition of lacZ reporter pAM6 expression: strongly repress

## #8: paired oligonucleotides -387 to -368 of OLE1 promoter (SEQ ID NO:44/45) (chain 1 AGGTCTCTTCGCATAGTCG; chain 2 CGACTATGCGAAGAGAACCT; chemistry not given here)
LORE binding factor(s); crude extracts from hypoxia and cobalt treated yeast
  hypoxia- or CoCl2-induced complex formation with end-labeled probe: No specific hypoxia- or CoCl2-induced complex formation
